Series [1] concerns SMN2 minigene mRNA (SMN2-A minigene construct). As to the kind of experiment: SMN2 minigene mRNA splicing RT-qPCR assay in cultured cells. It is filed as cell-based, human. The following applies: Homo sapiens, HEK293-H; HEK293H cells stably transfected with SMN2-A minigene, 24 hours, 7-point concentration data; concentration giving 1.5-fold SMN2 full length mRNA relative to vehicle-treated cells; read-out: EC1.5x for production of full length SMN2 mRNA. Put shortly: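 Full-length SMN2 minigene mRNA, measured by exon 7/luciferase-specific RT-qPCR that excludes endogenous SMN1/SMN2, was normalized to GAPDH and expressed relative to vehicle-treated cells via modified ΔΔCt. Stably transfected HEK293H cells received compound (7-point, 3.16-fold series, duplicates) for 24 h at 37 °C.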

The test system of a further series is Smn protein. As to the kind of experiment: Smn protein assay (HTRF) in cultured cells (SMA patient fibroblasts GM03813). It is filed as cell-based, human. The following applies: 48 hours; for maximum fold (Fold) increase of Smn protein: SMA patient fibroblast cells, 7-point concentration curve, relative to vehicle control; for EC1.5x for Smn protein expression: SMA patient fibroblast cells (GM03813), HTRF, 7-point concentration data, concentration producing 1.5 times Smn protein vs DMSO vehicle control. In outline: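 Smn level is expressed as fold over vehicle, from blank-corrected ΔF of the 665/620 nm HTRF ratio. Readout used anti-SMN d2 and kryptate antibodies on RIPA lysates. GM03813 SMA fibroblasts had 48 h exposure at 37° C to seven 3.16-fold compound dilutions, run in triplicate.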

Structures are written as SMILES.

`Cc1ccn2cc(-c3cc4ccc(N5C[C@@H](C)N[C@@H](C)C5)nc4oc3=O)nc2c1` [Cpd 100, 7-[(3R,5S)-3,5-dimethylpiperazin-1-yl]-3-(7-methylimidazo[1,2-a]pyridin-2-yl)-2H-pyrano[2,3-b]pyridin-2-one] returned a melting point of 246 to 249 °C. Moreover, the EC (1.5-fold) in series [1] is not above 0.1 µM. Also, in the series on Smn protein, the “maximum fold (Fold) increase of Smn protein” value (shortened to “maximum fold (Fold) increase”) was “*** (a fold increase between >1.35 and ≦1.5 is indicated by three stars (***))”.

For `Cc1ccn2cc(-c3cc4ccc(N5C[C@@H](C)N[C@@H](C)C5)nc4oc3=O)nc2n1` [Cpd 99, 7-[(3R,5S)-3,5-dimethylpiperazin-1-yl]-3-(7-methylimidazo[1,2-a]pyrimidin-2-yl)-2H-pyrano[2,3-b]pyridin-2-one], the melting point was in the range of 270 to 273 °C. In addition, in series [1], the EC (1.5-fold) was in the range of 0.1 to 0.3 µM. In the series with Smn protein, the “maximum fold (Fold) increase” value was “*** (a fold increase between >1.35 and ≦1.5 is indicated by three stars (***))”.

As for `Cl.O=c1oc2nc(N3CCCNCC3)ccc2cc1-c1cn2cccc(Cl)c2n1` [Cpd 47, 3-(8-chloroimidazo[1,2-a]pyridin-2-yl)-7-(1,4-diazepan-1-yl)-2H-pyrano[2,3-b]pyridin-2-one hydrochloride], the melting point is 252 to 255 °C. Further, in series [1], the EC (1.5-fold) was not above 0.1 µM. Besides, in the series with Smn protein, the “EC1.5x for Smn protein expression” value is “**** (an EC1.5×≦0.3 μM is indicated by four stars (****))” and the “maximum fold (Fold) increase” value is reported as “***** (a fold increase >1.65 is indicated by five stars (*****))”.

Take `Cc1cn2cc(-c3cc4ccc(N5CCCN(C)CC5)nc4oc3=O)nc2c(C)n1` [Cpd 91, 3-(6,8-dimethylimidazo[1,2-a]pyrazin-2-yl)-7-(4-methyl-1,4-diazepan-1-yl)-2H-pyrano[2,3-b]pyridin-2-one]: the melting point lay in the range of 243 to 245 °C. The EC (1.5-fold) in series [1] is not above 0.1 µM. In the series with Smn protein, the “EC1.5x for Smn protein expression” value is given as “**** (an EC1.5×≦0.3 μM is indicated by four stars (****))” and the “maximum fold (Fold) increase” value is “***** (a fold increase >1.65 is indicated by five stars (*****))”.

Compound `CN1CCCN(c2ccc3cc(-c4nc5c(Cl)cccc5s4)c(=O)oc3n2)CC1` [Cpd 37, 3-(4-chloro-1,3-benzothiazol-2-yl)-7-(4-methyl-1,4-diazepan-1-yl)-2H-pyrano[2,3-b]pyridin-2-one] showed a melting point of 263 to 265 °C. Besides, the EC (1.5-fold) in series [1] was not above 0.1 µM. Further, in the series on Smn protein, the “EC1.5x for Smn protein expression” value was “** (an EC1.5× between >1 and ≦3 μM is indicated by two stars (**))”; the “maximum fold (Fold) increase” value is “*** (a fold increase between >1.35 and ≦1.5 is indicated by three stars (***))”.

`CCN1CCN(c2ccc3cc(-c4nc(C)cs4)c(=O)oc3n2)CC1` [Cpd 20, 7-(4-ethylpiperazin-1-yl)-3-(4-methyl-1,3-thiazol-2-yl)-2H-pyrano[2,3-b]pyridin-2-one]: the melting point lay in the range of 228 to 232 °C. Besides, the EC (1.5-fold) in series [1] fell in the range of 3 to 30 µM. Further, the “maximum fold (Fold) increase” value with Smn protein is listed as “* (A maximum fold increase ≦1.2 is indicated by one star (*))”.

As to `Cl.O=c1oc2nc(N3CCCNCC3)ccc2cc1-c1cn2ccccc2n1` [Cpd 45, 7-(1,4-diazepan-1-yl)-3-(imidazo[1,2-a]pyridin-2-yl)-2H-pyrano[2,3-b]pyridin-2-one hydrochloride], the melting point was in the range of 265 to 267 °C. Moreover, the EC (1.5-fold) in series [1] lay within 0.1 to 0.3 µM. In addition, in the series on Smn protein, the “EC1.5x for Smn protein expression” value is “*** (an EC1.5× between >0.3 μM and ≦1 μM is indicated by three stars (***))”; the “maximum fold (Fold) increase” value is “**** (a fold increase between >1.5 and ≦1.65 is indicated by four stars (****))”.

`O=c1oc2nc(N3CCN(CCO)CC3)ccc2cc1-c1nc2c(Cl)cccc2s1` [Cpd 10, 3-(4-chloro-1,3-benzothiazol-2-yl)-7-[4-(2-hydroxyethyl)piperazin-1-yl]-2H-pyrano[2,3-b]pyridin-2-one] yielded a melting point of 258 to 262 °C. Also, the EC (1.5-fold) in series [1] is 0.3 to 1 µM. Besides, in the series on Smn protein, the “EC1.5x for Smn protein expression” value is “*** (an EC1.5× between >0.3 μM and ≦1 μM is indicated by three stars (***))”; the “maximum fold (Fold) increase” value was “*** (a fold increase between >1.35 and ≦1.5 is indicated by three stars (***))”.

As to `CN1CCN(c2ccc3cc(-c4cn5cccc(Cl)c5n4)c(=O)oc3n2)CC1` [Cpd 111, 3-(8-chloroimidazo[1,2-a]pyridin-2-yl)-7-(4-methylpiperazin-1-yl)-2H-pyrano[2,3-b]pyridin-2-one], the melting point was in the range of 256 to 259 °C. Further, the EC (1.5-fold) in series [1] was not above 0.1 µM. For the same compound, in the series on Smn protein, the “EC1.5x for Smn protein expression” value is recorded as “**** (an EC1.5×≦0.3 μM is indicated by four stars (****))”; the “maximum fold (Fold) increase” value is “*** (a fold increase between >1.35 and ≦1.5 is indicated by three stars (***))”.

Turning to `Cc1cn2cc(-c3cc4ccc(N5C[C@H](C)NC[C@H]5C)nc4oc3=O)nc2c(C)n1` [Cpd 95, 3-(6,8-dimethylimidazo[1,2-a]pyrazin-2-yl)-7-[(2R,5S)-2,5-dimethylpiperazin-1-yl]-2H-pyrano[2,3-b]pyridin-2-one], the melting point was 190 to 192 °C. In addition, the EC (1.5-fold) in series [1] is not above 0.1 µM. In the series with Smn protein, the “EC1.5x for Smn protein expression” value is given as “**** (an EC1.5×≦0.3 μM is indicated by four stars (****))” and the “maximum fold (Fold) increase” value was “***** (a fold increase >1.65 is indicated by five stars (*****))”.

Compound `O=c1oc2nc(N3CCNCC3)ccc2cc1-c1cn2cccc(Cl)c2n1` [Cpd 109, 3-(8-chloroimidazo[1,2-a]pyridin-2-yl)-7-(piperazin-1-yl)-2H-pyrano[2,3-b]pyridin-2-one] registered a melting point of 233 to 237 °C. Also, in series [1], the EC (1.5-fold) was not above 0.1 µM. Besides, in the series with Smn protein, the “EC1.5x for Smn protein expression” value is listed as “**** (an EC1.5×≦0.3 μM is indicated by four stars (****))”; the “maximum fold (Fold) increase” value is “**** (a fold increase between >1.5 and ≦1.65 is indicated by four stars (****))”.

`C[C@@H]1CN(c2ccc3cc(-c4cn5ccccc5n4)c(=O)oc3n2)CCN1C` [Cpd 82, 7-[(3R)-3,4-dimethylpiperazin-1-yl]-3-(imidazo[1,2-a]pyridin-2-yl)-2H-pyrano[2,3-b]pyridin-2-one] gave a melting point of 216 to 219 °C. In addition, the EC (1.5-fold) in series [1] fell in the range of 0.1 to 0.3 µM. In the series with Smn protein, the “EC1.5x for Smn protein expression” value was “*** (an EC1.5× between >0.3 μM and ≦1 μM is indicated by three stars (***))”; the “maximum fold (Fold) increase” value was “**** (a fold increase between >1.5 and ≦1.65 is indicated by four stars (****))”.

In turn, `C[C@H]1CN(c2ccc3cc(-c4cn5cccc(F)c5n4)c(=O)oc3n2)CCN1C` [Cpd 69, 7-[(3S)-3,4-dimethylpiperazin-1-yl]-3-(8-fluoroimidazo[1,2-a]pyridin-2-yl)-2H-pyrano[2,3-b]pyridin-2-one] returned a melting point of 222 to 225 °C. Also, in series [1], the EC (1.5-fold) is not above 0.1 µM. Further, in the series with Smn protein, the “EC1.5x for Smn protein expression” value is listed as “**** (an EC1.5×≦0.3 μM is indicated by four stars (****))” and the “maximum fold (Fold) increase” value is reported as “***** (a fold increase >1.65 is indicated by five stars (*****))”.

Turning to `O=c1oc2nc(N3CCN(CCO)CC3)ccc2cc1-c1nc2ccccc2s1` [Cpd 25, 3-(1,3-benzothiazol-2-yl)-7-[4-(2-hydroxyethyl)piperazin-1-yl]-2H-pyrano[2,3-b]pyridin-2-one], the melting point lay within 220 to 224 °C. In addition, the EC (1.5-fold) in series [1] fell in the range of 0.3 to 1 µM. Moreover, the “maximum fold (Fold) increase” value in the series on Smn protein is “*** (a fold increase between >1.35 and ≦1.5 is indicated by three stars (***))”.

In turn, `CCN1CCCN(c2ccc3cc(-c4cn5cc(C)cc(F)c5n4)c(=O)oc3n2)CC1` [Cpd 138, 7-(4-ethyl-1,4-diazepan-1-yl)-3-(8-fluoro-6-methylimidazo[1,2-a]pyridin-2-yl)-2H-pyrano[2,3-b]pyridin-2-one] returned a melting point of 195 to 200 °C. The EC (1.5-fold) in series [1] was not above 0.1 µM. In the series with Smn protein, the “EC1.5x for Smn protein expression” value is “**** (an EC1.5×≦0.3 μM is indicated by four stars (****))”; the “maximum fold (Fold) increase” value was “**** (a fold increase between >1.5 and ≦1.65 is indicated by four stars (****))”.

In the case of `CN1CCCN(c2ccc3cc(-c4nc5ccccc5s4)c(=O)oc3n2)CC1` [Cpd 56, 3-(1,3-benzothiazol-2-yl)-7-(4-methyl-1,4-diazepan-1-yl)-2H-pyrano[2,3-b]pyridin-2-one], the melting point was in the range of 274 to 276 °C. In series [1], the EC (1.5-fold) lay within 0.1 to 0.3 µM. Further, in the series with Smn protein, the “EC1.5x for Smn protein expression” value is “* (An EC1.5× for Smn protein expression between >3 μM and ≦10 μM is indicated by one star (*))”; the “maximum fold (Fold) increase” value is “** (a fold increase between >1.2 and ≦1.35 is indicated by two stars (**))”.

`CCN1CCN(c2ccc3cc(-c4nc5c(Cl)cccc5s4)c(=O)oc3n2)CC1` [Cpd 12, 3-(4-chloro-1,3-benzothiazol-2-yl)-7-(4-ethylpiperazin-1-yl)-2H-pyrano[2,3-b]pyridin-2-one] came in with a melting point of 266 to 269 °C. Further, the EC (1.5-fold) in series [1] was 0.3 to 1 µM. Besides, the “maximum fold (Fold) increase” value in the series on Smn protein is “*** (a fold increase between >1.35 and ≦1.5 is indicated by three stars (***))”.

(Values after patent US9371336B2, “Compounds for treating spinal muscular atrophy” (PTC Therapeutics Inc., priority 2012, dated 2016).)
